Reference: patent US5208135A, “Preparation and use of dyes” (Minnesota Mining and Manufacturing Company, priority 1990, dated 1993)

Key:
[1] = Absorption maximum and optical density of dye; format: physicochemical; conditions: for λmax: Table 1
Description: The solution was coated using K-bar 3 onto unsubbed 0.01 cm PET base and the resulting coating dried for 1 hour at 30° C. ("K-bars" are wire wound coating rods manufactured by R.K. Print-Coat Instrument Ltd.) The dried coating was topcoated with an aqueous solution of poly(vinyl alcohol) (8%) containing Tergitol TMN-10, commercially available from Union Carbide, using K-Bar 8 (10 ml 8% poly(vinyl alcohol) containing 1 ml 10% Tergitol TMN-10). The top coating was dried for 12 hours at 30° C. to provide a PVA oxygen-impermeable barrier layer over the photopolymer layer. The inclusion of a PVA barrier layer provides a more controlled imaging element for the evaluation of dye sensitised photopolymerisation than the composite of the previous Example.

[2] = Sensitisation of acrylate polymerisation: tungsten light exposure of laminate, acetone development (Example 4); conditions: coating; for Acetone Solubility After Exposure: after exposure to 250W tungsten light source for 30 seconds
Description: The ability of Dye C of the invention and Control Dyes 1 and 2 to sensitise acrylate polymerisation was evaluated by the following protocol.
A solution of Dye C (0.lg), pentaerythritol tetraacrylate monomer (0.6g), commercially available from Ancomer Chemicals under the trade designation ATM 11, 4-butoxyphenyl phenyl iodonium trifluoroacetate (0.125g) shown below as IOD J, and poly(vinyl butyral) (Butvar B-76) (0.6 g), was made in butanone (95 g) in conditions of diminished light. [drawing 30]
The solution was coated onto 0.01 cm unsubbed poly(ethylene terephthalate) (PET) base at a wet thickness of 24μm and dried. A laminate was prepared by covering the monomer coating with a second 0.01 cm PET sheet by cold pressure rolling. The laminate was imagewise exposed to a 250W tungsten light source for 30 seconds using the stage of an overhead projector. […] Stripping of the cover sheet was more readily completed in exposed areas, whereas, in unexposed areas the monomer coatings partially adhered to the cover sheet. The latent image was developed by immersion in acetone, wherein exposed areas remained adhered to the PET base and unexposed areas were rapidly dissolved to obtain a relief image.

[3] = Dye stability on storage in light-tight envelope at room temperature; format: physicochemical; conditions: for Loss of optical density after storage (thermal bleaching): Example 5 coating, 24 hour storage, light-tight envelope; for Loss of optical density after storage (thermal bleaching) / Loss of dye density during storage / Dye Stability: OD at Day 0 / Dye Stability: OD at Day 7: room temperature; for Loss of dye density during storage: less than 24 hours; for Dye Stability: OD at Day 0 / Dye Stability: OD at Day 7: lighttight envelope
Description: However, both Control Dyes 1 and 2 are readily bleached during storage with an 80% loss of dye density in less than 24 hours. Thus the dyes of the invention show increased stability compared with the control dyes.
*Storage is conducted in a lighttight envelope at room temperature.

Compound | λmax [1] [nm] | Acetone Solubility After Exposure [2] | Acetone Solubility Before Exposure [2] | Loss of optical density after storage (thermal bleaching) [3] | Loss of dye density during storage ([3]; laminate) [%] | Dye Stability: OD at Day 0 [3] | Dye Stability: OD at Day 7 [3] | Absorption maximum in coating ([1]; dried coating of Example 5) [nm] | OD at the absorption maximum ([1]; dried coating of Example 5, at 803 nm) | Imaging characteristics after storage ([3]; laminate, light tight envelope, 7 days, room temperature prior to exposure)
CCOC(=O)C(C#N)=CC=CC=CC=CC(C#N)=C(O)OCC [Control Dye 1] | 650 | Yes | Yes | lost substantially all optical density | 80 | 1.3 | 0.1 | – | – | –
O=C1C(=CC=CC=CC=CC2=C(O)c3ccccc3C2=O)C(=O)c2ccccc21 [Control Dye 2] | 760 | Yes | Yes | lost substantially all optical density | 80 | 1.5 | 0.1 | – | – | –
N#CC(C#N)=C1C(=CC=CC=CC2=C(O)c3ccccc3C2=C(C#N)C#N)C(=O)c2ccccc21 [Dye B] | – | – | – | – | – | – | – | 803 | 0.39 | –
N#CC(C#N)=C1C(=CC=CC=CC2=C(O)c3c(cccc3[N+](=O)[O-])C2=C(C#N)C#N)C(=O)c2c1cccc2[N+](=O)[O-] [Dye C] | 815 | No | Yes | – | – | 0.8 | 0.8 | – | – | unchanged imaging characteristics
